Reference: US20230167105A1, “BCL-2 PROTEIN INHIBITORS” (Recurium IP Holdings, LLC, priority 2020, published 2023)

Key:
[1] = tested on: MOLT-4 cells; assay: MOLT-4 Cell Proliferation Assay (CellTiter-Glo); format: cell-based; conditions: Homo sapiens, 72 h, read-out: MOLT-4 CTG IC50
Procedure: Cell proliferation was measured using the CellTiter-Glo® Luminescent Cell Viability Assay. The assay involved the addition of a single reagent (CellTiter-Glo® Reagent) directly to cells cultured in serum-supplemented medium. MOLT-4 cells (ATCC, CRL-1582) were cultured according to ATCC recommendations and were seeded at 50,000 cells per well.
Each compound evaluated was prepared as a DMSO stock solution (10 mM). Compounds were tested in duplicate on each plate, with a 10-point serial dilution curve (1:3 dilution). The highest compound concentration was 10 μM (final), with a 0.1% final DMSO concentration. Plates were then incubated at 37° C., 5% CO2 for 72 h, cell plates were equilibrated at rt for approximately 30 mins. An equi-volume amount of CellTiter-Glo® Reagent (100 μL) was added to each well. Plates were mixed for 2 mins on an orbital shaker to induce cell lysis and then incubated at rt for 10 mins to stabilize the luminescent signal. Luminescence was recorded using a Envision plate reader according to CellTiter-Glo protocol. IC50 of each compound was calculated using GraphPad Prism by nonlinear regression analysis.

[2] = molecular target: T1, Bcl-xL (Homo sapiens, UniProt Q07817); assay: Protein Degradation Assay in MOLT-4 Cells (Western blot); format: cell-based; conditions: for BCL-xL degradation in MOLT-4 cells: 50 nM compound, 16 hours, FIGS. 7 and 8
T1 construct: endogenous in cells; host or cells: MOLT-4 (ATCC CRL-1582)
Procedure: MOLT-4 (ATCC, CRL-1582) (FIGS. 7,8) were incubated with vehicle or 50 nM concentrations of the indicated compounds for 16 hours. For proteasome inhibition, MOLT-4 cells (250,000 cells/well) were pretreated with 1 μM of MG132 for 1 hour before the addition of 100 nM of the indicated compounds for 16 h. After treatment, the cells were harvested in RIPA lysis buffer supplemented with 1% Phosphatase Inhibitor and Protease Inhibitor Cocktail. An equal amount of protein (10 μg/lane) from each cell extract was resolved on a 4-12% Bis-Tris gel. Proteins were transferred using iBlot 2 Transfer Stacks. The membranes were blocked with 5% nonfat milk in TBS-T buffer (50 mM Tris-HCL, pH 7.6; 150 mM NaCl; and 0.05% Tween) and probed with primary antibodies (1:1000 dilution) overnight at 4° C. After three washes with TBS-T (10 min/wash), the membranes were incubated with an appropriate peroxidase-conjugated secondary antibody (Cell Signaling Technology, USA) for 1 hour at rt. After three washes with TBS-T, the proteins of interest were detected with ECL Western Blotting Detection Reagents and captured with an Azure imaging system. The band intensities were determined using ImageJ software and normalized to loading control β-actin or GAPDH. The primary antibodies Bcl-xL (#2762), Bcl-2 (#2872s), and GAPDH (#5174) were purchased from Cell Signaling Technology.

T1 sequence (Q07817 whole entry): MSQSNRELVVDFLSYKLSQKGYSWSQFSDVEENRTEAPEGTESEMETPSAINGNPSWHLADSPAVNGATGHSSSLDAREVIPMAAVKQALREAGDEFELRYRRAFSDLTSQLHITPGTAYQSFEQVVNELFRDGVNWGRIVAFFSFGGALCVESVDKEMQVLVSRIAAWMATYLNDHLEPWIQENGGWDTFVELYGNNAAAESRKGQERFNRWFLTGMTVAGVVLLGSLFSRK

Compound	IC50 [1] [nM]	BCL-xL degradation in MOLT-4 cells [2]	BCL-xL degradation in MOLT-4 cells, dose dependence ([2]; FIG. 9)	Bcl-xL degradation with proteasome inhibitor MG132 ([2]; MOLT-4 cells pretreated with 1 μM MG132 for 1 hour, then 100 nM compound for 16 h, FIG. 10)
Cc1ncsc1-c1ccc([C@H](C)NC(=O)[C@@H]2C[C@@H](O)CN2C(=O)[C@@H](NC(=O)CCCCCCN2CCN(CC[C@H](CSc3ccccc3)Nc3ccc(S(=O)(=O)NC(=O)c4ccc(N5CCN(CC6=C(C78CC(C)(C7)C8)CC(C)(C)CC6)CC5)cc4)cc3S(=O)(=O)C(F)(F)F)CC2)C(C)(C)C)cc1 [Example 25, (2S,4R)-1-((S)-2-(7-(4-((R)-3-((4-(N-(4-(4-((4,4-dimethyl-2-(3-methylbicyclo[1.1.1]pentan-1-yl)cyclohex-1-en-1-yl)methyl)piperazin-1-yl)benzoyl)sulfamoyl)-2-((trifluoromethyl)sulfonyl)phenyl)amino)-4-(phenylthio)butyl)piperazin-1-yl)heptanamido)-3,3-dimethylbutanoyl)-4-hydroxy-N—((S)-1-(4-(4-methylthiazol-5-yl)phenyl)ethyl)pyrrolidine-2-carboxamide]	50 to 150	induce BCL-xL degradation	–	–
Cc1ncsc1-c1ccc([C@H](C)NC(=O)[C@@H]2C[C@@H](O)CN2C(=O)[C@@H](NC(=O)CCCCCCCC(=O)N2CCN(CC[C@H](CSc3ccccc3)Nc3ccc(S(=O)(=O)NC(=O)c4ccc(N5CCN(CC6=C(C78CC(C)(C7)C8)CC(C)(C)CC6)CC5)cc4)cc3S(=O)(=O)C(F)(F)F)CC2)C(C)(C)C)cc1 [Example 24, (2S,4R)-1-((S)-2-(9-(4-((R)-3-((4-(N-(4-(4-((4,4-dimethyl-2-(3-methylbicyclo[1.1.1]pentan-1-yl)cyclohex-1-en-1-yl)methyl)piperazin-1-yl)benzoyl)sulfamoyl)-2-((trifluoromethyl)sulfonyl)phenyl)amino)-4-(phenylthio)butyl)piperazin-1-yl)-9-oxononanamido)-3,3-dimethylbutanoyl)-4-hydroxy-N—((S)-1-(4-(4-methylthiazol-5-yl)phenyl)ethyl)pyrrolidine-2-carboxamide]	50 to 150	induce BCL-xL degradation	–	–
CC1(C)CCC(CN2CCN(c3ccc(C(=O)NS(=O)(=O)c4ccc(N[C@H](CCN5CCN(CCCCc6ccc7c(c6)CN(C6CCC(=O)NC6=O)C7=O)CC5)CSc5ccccc5)c(S(=O)(=O)C(F)(F)F)c4)cc3)CC2)=C(C23CC(C(F)F)(C2)C3)C1 (stereo partly drawn) [Example 18, 4-(4-((2-(3-(difluoromethyl)bicyclo [1.1.1]pentan-1-yl)-4,4-dimethylcyclohex-1-en-1-yl)methyl)piperazin-1-yl)-N-((4-(((2R)-4-(4-(4-(2-(2,6-dioxopiperidin-3-yl)-1-oxoisoindolin-5-yl)butyl)piperazin-1-yl)-1-(phenylthio)butan-2-yl)amino)-3-((trifluoromethyl)sulfonyl)phenyl)sulfonyl)benzamide]	≤ 50	–	–	–
Cc1ncsc1-c1ccc([C@H](C)NC(=O)[C@@H]2C[C@@H](O)CN2C(=O)[C@@H](NC(=O)CCCCCN2CCN(CC[C@H](CSc3ccccc3)Nc3ccc(S(=O)(=O)NC(=O)c4ccc(N5CCN(CC6=C(C78CC(C)(C7)C8)CC(C)(C)CC6)CC5)cc4)cc3S(=O)(=O)C(F)(F)F)CC2)C(C)(C)C)cc1 [Example 26, (2S,4R)-1-((S)-2-(6-(4-((R)-3-((4-(N-(4-(4-((4,4-dimethyl-2-(3-methylbicyclo[1.1.1]pentan-1-yl)cyclohex-1-en-1-yl)methyl)piperazin-1-yl)benzoyl)sulfamoyl)-2-((trifluoromethyl)sulfonyl)phenyl)amino)-4-(phenylthio)butyl)piperazin-1-yl)hexanamido)-3,3-dimethylbutanoyl)-4-hydroxy-N—((S)-1-(4-(4-methylthiazol-5-yl)phenyl)ethyl)pyrrolidine-2-carboxamide]	≥ 150	–	–	–
CC1(C)CCC(c2ccc(Cl)cc2)=C(CN2CCN(c3ccc(C(=O)NS(=O)(=O)c4ccc(N[C@H](CCN5CCOCC5)CSc5ccccc5)c(S(=O)(=O)C(F)(F)F)c4)cc3)CC2)C1 [ABT-263, navitoclax, reference compound]	50 to 150	–	–	–
Cc1ncsc1-c1ccc([C@H](C)NC(=O)[C@@H]2C[C@@H](O)CN2C(=O)[C@@H](NC(=O)CCCCC(=O)N2CCN(CC[C@H](CSc3ccccc3)Nc3ccc(S(=O)(=O)NC(=O)c4ccc(N5CCN(CC6=C(C78CC(C(F)F)(C7)C8)CC(C)(C)CC6)CC5)cc4)cc3S(=O)(=O)C(F)(F)F)CC2)C(C)(C)C)cc1 [Example 1, (2S,4R)-1-((S)-2-(6-(4-((R)-3-((4-(N-(4-(4-((2-(3-(difluoromethyl)bicyclo[1.1.1]pentan-1-yl)-4,4-dimethylcyclohex-1-en-1-yl)methyl)piperazin-1-yl)benzoyl)sulfamoyl)-2-((trifluoromethyl)sulfonyl)phenyl)amino)-4-(phenylthio)butyl)piperazin-1-yl)-6-oxohexanamido)-3,3-dimethylbutanoyl)-4-hydroxy-N—((S)-1-(4-(4-methylthiazol-5-yl)phenyl)ethyl)pyrrolidine-2-carboxamide]	≥ 150	–	–	–
CC1(C)CCC(CN2CCN(c3ccc(C(=O)NS(=O)(=O)c4ccc(N[C@H](CCN5CCN(CCCCNc6ccc7c(c6)C(=O)N(C6CCC(=O)NC6=O)C7=O)CC5)CSc5ccccc5)c(S(=O)(=O)C(F)(F)F)c4)cc3)CC2)=C(C23CC(C(F)F)(C2)C3)C1 (stereo partly drawn) [Example 13, 4-[4-[[2-[3-(difluoromethyl)-1-bicyclo[1.1.1]pentanyl]-4,4-dimethyl-cyclohexen-1-yl]methyl]piperazin-1-yl]-N-[4-[[(1R)-3-[4-[4-[[2-(2,6-dioxo-3-piperidyl)-1,3-dioxo-isoindolin-5-yl]amino]butyl]piperazin-1-yl]-1-(phenylsulfanylmethyl)propyl]amino]-3-(trifluoromethylsulfonyl)phenyl]sulfonyl-benzamide]	≤ 50	–	–	–

Continued, in another order:

IC50 [1] [nM]	BCL-xL degradation in MOLT-4 cells [2]	Compound	BCL-xL degradation in MOLT-4 cells, dose dependence ([2]; FIG. 9)	Bcl-xL degradation with proteasome inhibitor MG132 ([2]; MOLT-4 cells pretreated with 1 μM MG132 for 1 hour, then 100 nM compound for 16 h, FIG. 10)
≤ 50	–	CC1(C)CCC(CN2CCN(c3ccc(C(=O)NS(=O)(=O)c4ccc(N[C@H](CCN5CCN(CCCC#Cc6ccc7c(c6)CN(C6CCC(=O)NC6=O)C7=O)CC5)CSc5ccccc5)c(S(=O)(=O)C(F)(F)F)c4)cc3)CC2)=C(C23CC(C(F)F)(C2)C3)C1 (stereo partly shown) [Example 30]	can induce BCL-xL degradation in MOLT-4 cells in a dose dependent manner	can be inhibited by proteasome inhibitor MG132
50 to 150	induce BCL-xL degradation	Cc1ncsc1-c1ccc([C@H](C)NC(=O)[C@@H]2C[C@@H](O)CN2C(=O)[C@@H](NC(=O)CCCCC(=O)N(C)C2CCN(CC[C@H](CSc3ccccc3)Nc3ccc(S(=O)(=O)NC(=O)c4ccc(N5CCN(CC6=C(C78CC(C(F)F)(C7)C8)CC(C)(C)CC6)CC5)cc4)cc3S(=O)(=O)C(F)(F)F)CC2)C(C)(C)C)cc1 [Example 43, N1-(1-((R)-3-((4-(N-(4-(4-((2-(3-(difluoromethyl)bicyclo[1.1.1]pentan-1-yl)-4,4-dimethylcyclohex-1-en-1-yl)methyl)piperazin-1-yl)benzoyl)sulfamoyl)-2-((trifluoromethyl)sulfonyl)phenyl)amino)-4-(phenylthio)butyl)piperidin-4-yl)-N6-((S)-1-((2S,4R)-4-hydroxy-2-(((S)-1-(4-(4-methylthiazol-5-yl)phenyl)ethyl)carbamoyl)pyrrolidin-1-yl)-3,3-dimethyl-1-oxobutan-2-yl)-N1-methyladipamide]	–	–
50 to 150	induce BCL-xL degradation	Cc1ncsc1-c1ccc([C@H](C)NC(=O)[C@@H]2C[C@@H](O)CN2C(=O)[C@@H](NC(=O)CCCCCCCN(C)CC[C@H](CSc2ccccc2)Nc2ccc(S(=O)(=O)NC(=O)c3ccc(N4CCN(CC5=C(C67CC(C(F)F)(C6)C7)CC(C)(C)CC5)CC4)cc3)cc2S(=O)(=O)C(F)(F)F)C(C)(C)C)cc1 [Example 28, (2S,4R)-1-((S)-2-(8-(((R)-3-((4-(N-(4-(4-((2-(3-(difluoromethyl)bicyclo[1.1.1]pentan-1-yl)-4,4-dimethylcyclohex-1-en-1-yl)methyl)piperazin-1-yl)benzoyl)sulfamoyl)-2-((trifluoromethyl)sulfonyl)phenyl)amino)-4-(phenylthio)butyl)(methyl)amino)octanamido)-3,3-dimethylbutanoyl)-4-hydroxy-N—((S)-1-(4-(4-methylthiazol-5-yl)phenyl)ethyl)pyrrolidine-2-carboxamide]	–	–
